The results in this text go back to EP0627929B1, “INHIBITORS OF THROMBOSIS” (CORVAS INTERNATIONAL, INC., priority 1992, dated 1993).

What is called pIC50 is −log10 of the IC50, conventionally taken in molar units. A higher pIC50 goes with a small IC50.

For one experiment, the target named is human α-thrombin (Homo sapiens, UniProt P00734). Nature of the experiment: Thrombin assay: inhibition of chromogenic substrate (Pefachrome t-PA) hydrolysis. In kind it is biochemical. To be noted: purified human α-thrombin 0.25 nM, substrate 300 µM, 30 minute incubation, HBSA pH 7.5. The procedure:
(§1) In the assays for thrombin, factor Xa and plasmin, a chromogenic synthetic substrate is added to a solution containing test compound and the enzyme of interest and the residual catalytic activity of that enzyme is determined spectrophometrically. The IC50 of compound is determined from the substrate turnover. […] The buffer used for all assays was HBSA (10 mM HEPES, pH 7.5, 150 mM sodium chloride, 0.1% bovine serum albumin). […] Following a 30 minute incubation at ambient temperature, 50 µL of the substrate at the concentrations specified below, was added to the wells yielding a final total volume of 200 µL.

Another experiment has as its target T1, Human factor Xa (Homo sapiens, UniProt P00742).
T1 construct: Human factor Xa was prepared from purified human factor X obtained from Enzyme Research Laboratories; purchased Enzyme Research Laboratories
Nature of the experiment: Factor Xa assay: inhibition of chromogenic substrate (S2765) hydrolysis. In kind it is biochemical. The conditions noted are these: human factor Xa 0.5 nM, substrate 250 µM, 30 minute incubation, HBSA pH 7.5. The procedure:
as §1, with “μL” for “µL”, “μL. […] Factor Xa catalytic activity was determined using the substrate, S2765 (N-α-benzyloxycarbonyl-[…]-nitroanilide dihydrochloride) which was obtained from Kabi Diagnostica. […] Human factor Xa was prepared from purified human factor X obtained from Enzyme Research Laboratories according to the method described by Bock, P.E. et al., Archives of Biochem. Biophys. […] The enzyme was diluted into HBSA prior to the assay in which the final concentration was 0.5 nM.” for “µL.”

Another experiment addresses human plasmin (Homo sapiens, UniProt P00747). Description: Plasmin assay: inhibition of chromogenic substrate (S-2251) hydrolysis. It counts as biochemical. To be noted: purified human plasmin 1.0 nM, substrate 300 µM, 30 minute incubation, HBSA pH 7.5. The procedure: as §1, with “μL” for “µL”, “μL. […] Plasmin catalytic activity was determined using the chromogenic substrate, […] dihydrochloride], which was obtained from Kabi Diagnostica.” for “µL.”

Experiment [1] deals with FeCl3-induced platelet-dependent arterial thrombosis. To be noted: rat, [Isolated clot/(Intact segment-Empty segment)] X 100, mean ± S.E.M., control 68.65±3.75.
Description: In this model a platelet-rich, occlusive thrombus is formed in a segment of the rat carotid artery treated with a fresh solution of FeCl3 absorbed to a piece of filter paper. […] The effect of a test compound on the incidence of occlusive thrombus formation following the application of the FeCl3 is monitored by ultrasonic flowtometry and is used as the primary end point.
Male Harlan Sprague Dawley rats (420-450 g) were acclimated at least 72 hours prior to use and fasted for 12 hours prior to surgery with free access to water. The animals were prepared, anesthetized with Nembutal with catheters for blood pressure monitoring, drug and anesthesia delivery being implanted as described above. The left carotid artery was isolated by making a midline cervical incision followed by blunt dissection and spreading techniques to separate a 2 cm segment of the vessel from the carotid sheath. A silk suture is inserted under the proximal and distal ends of the isolated vessel to provide clearance for the placement of a ultrasonic flow probe (Transonic) around the proximal end of the vessel. The probe is then secured with a stationary arm.
The test compounds were administered as described above after placement of the flow probe and stabilization of the preparation for a period of 30 min prior to the thrombogenic stimulus. At t=0, a 3mm diameter piece of filter paper (Whatman #3) soaked with 10 mL of a 35% solution of fresh FeCl3 (made up in water) was applied the segment of isolated carotid artery distal to the flow probe. Blood pressure, blood flow, heart rate, and respiration were monitored for 60 minutes.
The incidence of occlusion (defined as the attainment of zero blood flow) was recorded as the primary end point. Following the 60 minute observation period the flow probe was removed and the area cleared of all excess fluid. The distal and proximal sutures were tied off and arterial clamps placed on the far proximal and distal ends of the segment. […] The segment was reweighed following removal of the clot and the difference recorded as total % clot weight. […]

pIC50: −log10 of the molar value. Where two headings read alike, the source gives them in different places. Peptide text beside a SMILES is read from it. * marks the point of attachment. Hydrocinnamoyl = O=C(CCc1ccccc1)*

Sequence of human plasmin (P00747 581-810 limits assumed): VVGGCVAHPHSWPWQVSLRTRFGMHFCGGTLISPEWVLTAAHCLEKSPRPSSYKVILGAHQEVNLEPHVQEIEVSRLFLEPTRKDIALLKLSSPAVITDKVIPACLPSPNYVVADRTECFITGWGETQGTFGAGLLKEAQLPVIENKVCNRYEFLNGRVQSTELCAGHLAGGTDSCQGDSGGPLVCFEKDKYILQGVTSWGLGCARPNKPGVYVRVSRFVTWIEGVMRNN
Sequence of human plasmin (P00747 97-580 partner limits assumed): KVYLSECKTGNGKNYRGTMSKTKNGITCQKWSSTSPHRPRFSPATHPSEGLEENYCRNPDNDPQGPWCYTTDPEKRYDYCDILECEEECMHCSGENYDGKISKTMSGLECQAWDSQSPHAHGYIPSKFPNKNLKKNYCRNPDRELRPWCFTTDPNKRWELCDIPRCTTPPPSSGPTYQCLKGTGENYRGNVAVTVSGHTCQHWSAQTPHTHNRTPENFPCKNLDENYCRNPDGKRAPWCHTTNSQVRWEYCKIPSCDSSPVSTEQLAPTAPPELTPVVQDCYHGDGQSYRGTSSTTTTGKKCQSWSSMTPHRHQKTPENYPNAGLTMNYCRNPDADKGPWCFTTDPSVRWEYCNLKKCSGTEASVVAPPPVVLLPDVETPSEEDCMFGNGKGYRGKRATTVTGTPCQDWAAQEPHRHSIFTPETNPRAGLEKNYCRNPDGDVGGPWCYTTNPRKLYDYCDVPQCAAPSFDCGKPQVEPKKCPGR
T1 sequence (P00742 235-488 limits assumed): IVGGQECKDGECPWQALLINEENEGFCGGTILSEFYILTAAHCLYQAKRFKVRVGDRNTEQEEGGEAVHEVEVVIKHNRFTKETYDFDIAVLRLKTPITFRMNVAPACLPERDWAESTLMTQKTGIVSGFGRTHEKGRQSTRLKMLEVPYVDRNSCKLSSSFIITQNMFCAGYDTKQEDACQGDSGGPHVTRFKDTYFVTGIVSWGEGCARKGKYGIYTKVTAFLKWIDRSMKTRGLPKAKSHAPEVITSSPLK
T1 sequence (P00742 41-179 partner limits assumed): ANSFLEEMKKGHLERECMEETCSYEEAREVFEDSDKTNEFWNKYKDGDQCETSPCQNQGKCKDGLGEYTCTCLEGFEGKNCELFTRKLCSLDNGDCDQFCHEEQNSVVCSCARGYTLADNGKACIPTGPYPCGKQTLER

`CCCC(CCC)C(=O)N[C@@H](CC(=O)O)C(=O)N1CCC[C@H]1C(=O)N[C@H](C=O)CCCNC(=N)N` [2PrPent-Asp-Pro-Arg-al, N-(2-propylpentanoyl)-L-aspartyl-L-prolyl-L-argininal]: the pIC50 on human α-thrombin was 8.07; against Human factor Xa it was 6.76; at human plasmin, 6.55.
For “3-tetrazolyl-2-(4-methylvaleroylamido) propionoyl-L-prolyl-L-argininal [4MeV-Ala(Tzl)-Pro-Arg-al]”, the pIC50 on human α-thrombin is 7.06; against Human factor Xa, 7.19; against human plasmin, 6.30.
In the case of `CCCC(CCC)C(=O)N[C@@H](CC(=O)OC)C(=O)N1CCC[C@H]1C(=O)N[C@H](C=O)CCCNC(=N)N` [2PrPent-Asp(OCH3)-Pro-Arg-al], the pIC50 on Human factor Xa was 6.53; against human plasmin, 6.49.
Consider `COC(=O)C[C@H](NC(=O)CCc1ccccc1)C(=O)N1CCC[C@H]1C(=O)N[C@H](C=O)CCCNC(=N)N` [HCA-Asp(OCH3)-Pro-Arg-al, N-(3-phenylpropanoyl)-L-aspartyl-β-(methyl ester)-L-prolyl-L-argininal] (Hydrocinnamoyl-Asp(OMe)-Pro-Arg-aldehyde), for which the pIC50 on human α-thrombin is 7.36; against Human factor Xa, 6.67; at human plasmin, 6.26.
For `CC(C)CCC(=O)N[C@@H](CC(=O)O)C(=O)N1CCC[C@H]1C(=O)N[C@H](C=O)CCCNC(=N)N` [4MeV-Asp-Pro-Arg-al, N-(4-methylpentanoyl)-L-aspartyl-L-prolyl-L-argininal] the same measures were 6.83, 7.24 and 6.07.
Take `N=C(N)NCCC[C@@H](C=O)NC(=O)[C@@H]1CCCN1C(=O)[C@H](CC(=O)O)NC(=O)CC1CCCCC1` [ChxAc-Asp-Pro-Arg-al, N-(1-cyclohexylacetyl)-L-aspartyl-L-prolyl-L-argininal]: the results for the pIC50 against human α-thrombin, at Human factor Xa and against human plasmin were 7.27, 6.89 and 6.85, respectively.
Turning to `N=C(N)NCCC[C@@H](C=O)NC(=O)[C@@H]1CCCN1C(=O)[C@H](CC(=O)O)NC(=O)CCC1CCCCC1` [ChxPA-Asp-Pro-Arg-al, N-(3-cyclohexanepropionyl)-L-aspartyl-L-prolyl-L-argininal], the pIC50 against human α-thrombin is 7.28; on Human factor Xa, 7.51; against human plasmin it was 6.08.
“N-(3-phenylpropanyl)-L-aspartyl-L-prolyl-L-argininal [HCA-Asp-Pro-Arg-al]”: the pIC50 against human α-thrombin is 6.63; against Human factor Xa, 7.04; against human plasmin, 6.49. For the same compound, the “Clot Size” value was 48.38±24.71% in experiment [1] (Group1: 25µg/kg/min i.v. infusion); 22.38±21.0 % in experiment [1] (Group2: 50µg/kg/min i.v. infusion, p<0.01 vs Control); 3.38±5.44 % in experiment [1] (Group3: 100µg/kg/min i.v. infusion, p<0.01 vs Control).
Regarding “N-Boc-D-phenylalanyl-L-aspartyl-L-prolyl-L-argininal [Boc-(D-Phe)-Pro-Arg-al, reference compound]”, the pIC50 at human α-thrombin is 8.34; at human plasmin, 6.00.
